Each structure is given as a SMILES string.

For series [1] the following is noted: Gower A. J. et al., Eur. J. Pharmacol. (1992), 222, 193-203; cited from earlier work.

On to `COCc1nn2c(CN3C[C@@H](CC(F)(F)F)CC3=O)c(C(F)(F)F)nc2s1` [Compound 11, (4R)-1-{[2-(methoxymethyl)-6-(trifluoromethyl)imidazo[2,1-b][1,3,4]thiadiazol-5-yl]methyl}-4-(2,2,2-trifluoroethyl)pyrrolidin-2-one], for which the melting point came to 72 °C. Same read-out and setting: as for `O=C1C[C@H](CC(F)(F)Cl)CN1Cc1c(C(F)(F)F)nc2sc(CO)nn12` [Compound 8, (4R)-4-(2-chloro-2,2-difluoroethyl)-1-{[2-(hydroxymethyl)-6-(trifluoromethyl)imidazo[2,1-b][1,3,4]thiadiazol-5-yl]methyl}pyrrolidin-2-one], the figure is 154 °C; as for `COCc1nn2c(CN3CC(CCC(F)(F)F)CC3=O)c(Cl)nc2s1` (single isomer, unassigned; (+)) [Compound 27, (+)-1-{[6-chloro-2-(methoxymethyl)imidazo[2,1-b][1,3,4]thiadiazol-5-yl]methyl}-4-(3,3,3-trifluoropropyl)pyrrolidin-2-one], 60 °C. On to `CC[C@H](C(N)=O)N1CCCC1=O` [(R)-α-ethyl-2-oxo-1-pyrrolidine acetamide], for which the “activity in the treatment of epilepsy (seizure control)” value in series [1] is on record as “completely lacks activity”. Consider `COCc1nn2c(CN3CC(CC(C)(F)F)CC3=O)c(C(F)(F)F)nc2s1` (single isomer, unassigned; (+)) [Compound 2, (+)-4-(2,2-difluoropropyl)-1-{[2-(methoxymethyl)-6-(trifluoromethyl)imidazo[2,1-b][1,3,4]thiadiazol-5-yl]methyl}pyrrolidin-2-one], for which the melting point was 70 °C. Take `COCc1nn2c(CN3CC(CC(F)(F)Cl)CC3=O)c(C(F)F)nc2s1` (single isomer, unassigned; (+)) [Compound 23, (+)-4-(2-chloro-2,2-difluoroethyl)-1-{[6-(difluoromethyl)-2-(methoxymethyl)imidazo[2,1-b][1,3,4]thiadiazol-5-yl]methyl}pyrrolidin-2-one]: the melting point stood at 73 °C. The compound `COCc1nn2c(CN3C[C@H](CC(F)(F)F)CC3=O)c(C(F)(F)F)nc2s1` [Compound 12, (4S)-1-{[2-(methoxymethyl)-6-(trifluoromethyl)imidazo[2,1-b][1,3,4]thiadiazol-5-yl]methyl}-4-(2,2,2-trifluoroethyl)pyrrolidin-2-one] had a melting point of 73 °C. Compound `COCc1nn2c(CN3CC(CC(C)(F)F)CC3=O)c(C(F)(F)F)nc2s1` (single isomer, unassigned; (-)) [Compound 3, (−)-4-(2,2-difluoropropyl)-1-{[2-(methoxymethyl)-6-(trifluoromethyl)imidazo[2,1-b][1,3,4]thiadiazol-5-yl]methyl}pyrrolidin-2-one] displayed a melting point of 67 °C.

Values taken from patent US8822508B2, “2-oxo-1-pyrrolidinyl imidazothiadiazole derivatives” (UCB Pharma, S.A., priority 2009, dated 2014).
